According to US10344019B2 (priority 2010, dated 2019):
Where two headings read alike, the source gives them in different places.

Key:
Assay in all cases: microbe, parasite or virus in culture
Type in all cases: cell-based
[1] = system: HCV 2a JFH-1 Rluc cells (dicistronic genotype 2a JFH-1 replicon, RLuc reporter); settings: genotype 2a JFH-1 replicon, read-out: 2a JFH
Description: (§1) Evaluation of cell-based anti-HCV activity: Antiviral potency (EC50) was determined using a Renilla luciferase (RLuc)-based HCV replicon reporter assay. To perform the assay for genotype 1 and 2a JFH-1, HCV 1b RLuc cells (harboring a dicistronic genotype 1b Con1 replicon that encodes a RLuc reporter), or HCV 1a RLuc cells (harboring a dicistronic genotype 1a H77 replicon that encodes a RLuc reporter), or HCV 2a JFH-1 Rluc cells (harboring a dicistronic genotype 2a JFH-1 replicon that encodes a RLuc reporter) were dispensed into 384-well plates. To perform the assay for genotype 2a (with M31 present) or 2b, HCV 2a Rluc or 2b Rluc cells (both with M31 present) harboring a dicistronic NS5A chimeric genotype 2a JFH-1 replicon that encodes a RLuc reporter and either genotype 2a J6 strain NS5A gene or genotype 2b MD2b-1 NS5A gene (based on Los Alamos HCV database isolates, both with M31 present) respectively, were dispensed into 384-well plates. To perform the assay for genotype 3 and 4, HCV 3a RLuc or 4a Rluc cells harboring a dicistronic NS5A chimeric genotype 1b Con1 replicon that encodes a RLuc reporter and either a consensus genotype 3a NS5A gene or genotype 4a NS5A gene (based on Los Alamos HCV database isolates) respectively, were dispensed into 384-well plates. Compounds were re-suspended in DMSO at a concentration of 10 mM and serially diluted in DMSO either manually or using an automated pipeting instrument. Serially diluted compounds were mixed with cell culture media and added to the seeded cells. […] 72 hours later, cells were lysed and Renilla luciferase activity quantified as recommended by the manufacturer (Promega-Madison, Wis.). Non-linear regression was performed to calculate EC50 values.

[2] = system: HCV 3a RLuc cells (NS5A chimeric genotype 1b Con1 replicon with consensus genotype 3a NS5A gene); settings: Hepatitis C virus
Description: as §1

[3] = system: HCV 1a RLuc cells (dicistronic genotype 1a H77 replicon, RLuc reporter); settings: genotype 1a H77 replicon, read-out: 1a
Description: as §1

[4] = system: HCV 1b RLuc cells (dicistronic genotype 1b Con1 replicon, RLuc reporter)
Description: as §1

[5] = Hepatitis C virus, RLuc reporter
[6] = read-out: 3a, genotype 3a NS5A chimeric 1b Con1 replicon
[7] = Hepatitis C virus, read-out: 1b (nM)
[8] = Hepatitis C virus, 72 h, Table 1, 72 hours
[9] = Hepatitis C virus, 72 h, read-out: 1b (nM)
[10] = Hepatitis C virus, 72 h, Table 2, 72 hours

Row | Compound | EC50 [1, 5] [nM] | EC50 [2, 6] [nM] | EC50 [3, 5] [nM] | EC50 [4, 7] [nM] | also measured
1 | COC(=O)N[C@H](C(=O)N1CCC[C@H]1c1ncc(-c2ccc3cc(-c4ccc(-c5cnc([C@@H]6CCCN6C(=O)C6(NC(=O)OC)Cc7ccccc7C6)[nH]5)cc4)ccc3c2)[nH]1)C(C)C [Example 191] | > 44 | > 5 | 1 to 44 | 0.253 | –
2 | COC(=O)N[C@H](C(=O)N1CCC[C@H]1c1nc2c([nH]1)-c1ccc(-c3ccc4cc(-c5cnc([C@@H]6CCCN6C(=O)[C@H](NC(=O)OC)c6ccccc6)[nH]5)ccc4c3)cc1CC2)C1CCOCC1 [Example 174] | – | 0.001 to 0.99 | – | – | EC50 ([1]; RLuc reporter): 0.001 to 0.999 nM; EC50 ([3]; RLuc reporter): 0.001 to 0.999 nM; EC50 ([4]; read-out: 1b): 0.015 nM
3 | COC(=O)N[C@H](C(=O)N1C[C@H](C#N)C[C@H]1c1ncc(-c2ccc3cc(-c4ccc(-c5cnc([C@@H]6CCCN6C(=O)[C@@H](c6ccccc6)N(C)C)[nH]5)cc4)ccc3c2)[nH]1)C(C)C [Example 144] | 0.001 to 0.999 | 0.001 to 0.99 | 0.001 to 0.999 | 0.013 | –
4 | COC(=O)N[C@H](C(=O)N1CCC[C@H]1c1ncc(-c2ccc(-c3ccc4cc(-c5cnc([C@@H]6CCCN6C(=O)C(c6ccccc6)N(C)C)[nH]5)ccc4c3)cc2)[nH]1)C(C)C (stereo partly drawn) [Example 110] | 0.001 to 0.999 | 0.001 to 0.99 | 0.001 to 0.999 | 0.009 | –
5 | COC(=O)N[C@H](C(=O)N1C[C@H](C)C[C@H]1c1ncc(-c2ccc3cc(-c4ccc(-c5cnc([C@@H]6CCCN6C(=O)[C@H](NC(=O)OC)c6cccc(C)c6)[nH]5)cc4)ccc3c2)[nH]1)C(C)C [Example 184] | 0.001 to 0.999 | 0.001 to 0.99 | 0.001 to 0.999 | 0.009 | –
6 | COC(=O)N[C@H](C(=O)N1CCC[C@H]1c1ncc(-c2ccc3c(c2)CCc2cc(-c4cnc([C@@H]5CCCN5C(=O)[C@H](NC(=O)OC)c5ccccc5)[nH]4)ccc2-3)[nH]1)C(C)C [Example 180] | 0.001 to 0.999 | 0.001 to 0.99 | 0.001 to 0.999 | 0.007 | –
7 | COC(=O)N[C@@H](CC1CCOCC1)C(=O)N1CCC[C@H]1c1ncc(-c2ccc3cc(-c4ccc(-c5cnc([C@@H]6CCCN6C(=O)[C@H](NC(=O)OC)c6ccccc6)[nH]5)cc4)ccc3c2)[nH]1 [Example 213] | 0.001 to 0.999 | 0.001 to 0.99 | 0.001 to 0.999 | 0.03 | –
8 | COC(=O)N[C@H](C(=O)N1C[C@H](C)C[C@H]1c1ncc(-c2cc3cc4sc(-c5cnc([C@@H]6C[C@@H](C)CN6C(=O)[C@@H](NC(=O)OC)C(C)C)[nH]5)cc4cc3s2)[nH]1)C(C)C [Example 121] | 0.001 to 0.999 | 1 to 4.99 | 0.001 to 0.999 | 0.011 | –
9 | COC(=O)N[C@H](C(=O)N1C[C@H](C)C[C@H]1c1ncc(-c2ccc3cc(-c4ccc(-c5cnc([C@@H]6CCCN6C(=O)[C@H](NC(=O)OC)c6ccccc6OC)[nH]5)cc4)ccc3c2)[nH]1)C(C)C [Example 147] | 0.001 to 0.999 | 0.001 to 0.99 | 0.001 to 0.999 | 0.012 | –
10 | COC(=O)N[C@H](C(=O)N1CCC[C@H]1c1nc(-c2ccc3cc(-c4ccc(-c5c[nH]c([C@@H]6CCCN6C(=O)[C@@H](c6ccccc6)N(C6CC6)C6CC6)n5)cc4)ccc3c2)c[nH]1)C(C)C [Example 179] | 1 to 44 | > 5 | 1 to 44 | 0.041 | –
11 | COC(=O)N[C@H](C(=O)N1CCC[C@H]1c1ncc(-c2ccc3c4c(ccc3c2)-c2ccc(-c3cnc([C@@H]5CCCN5C(=O)C(c5ccccc5)N(C)C)[nH]3)cc2CO4)[nH]1)C(C)C (stereo partly drawn) [Example 3] | – | – | – | – | EC50 [1, 8]: 0.001 to 0.999 nM; EC50 ([2]; read-out: 3a, Table 1, genotype 3a NS5A chimeric replicon): 0.001 to 0.99 nM; EC50 [3, 8]: 0.001 to 0.999 nM; EC50 [4, 9]: 0.011 nM
12 | COC(=O)N[C@H](C(=O)N1CCC[C@H]1c1nc2c([nH]1)-c1ccc(-c3ccc4cc(-c5cnc([C@@H]6COCCN6C(=O)[C@H](NC(=O)OC)c6ccccc6)[nH]5)ccc4c3)cc1CC2)C(C)C [Example 211] | 1 to 44 | 1 to 4.99 | 0.001 to 0.999 | 0.009 | –
13 | COC(=O)N[C@H](C(=O)N1C[C@@H](C#N)C[C@H]1c1nc2ccc(-c3ccc(-c4ccc5c(c4)CCc4nc([C@@H]6CCCN6C(=O)[C@H](NC(=O)OC)c6ccccc6)[nH]c4-5)cc3)cc2[nH]1)C1CCOCC1 [Example 167] | 0.001 to 0.999 | 0.001 to 0.99 | 0.001 to 0.999 | 0.048 | –
14 | COC(=O)N[C@H](C(=O)N1CCC[C@H]1c1ncc(-c2ccc3cc(-c4ccc(-c5cnc([C@@H]6C[C@H](C#N)CN6C(=O)[C@H](NC(=O)OC)c6ccccc6)[nH]5)cc4)ccc3c2)[nH]1)C(C)C [Example 124] | 0.001 to 0.999 | 0.001 to 0.99 | 0.001 to 0.999 | 0.011 | –
15 | COC(=O)N[C@H](C(=O)N1CCC[C@H]1c1ncc(-c2ccc(-c3ccc4cc(-c5cnc(C6CCCN6C(=O)[C@H](NC(=O)OC)c6ccccc6)[nH]5)ccc4c3)cc2)[nH]1)C1CCOCC1 (stereo partly drawn) [Example 154] | 0.001 to 0.999 | 0.001 to 0.99 | 0.001 to 0.999 | 0.014 | –
16 | COC(=O)N[C@H](C(=O)N1CC(=O)C[C@H]1c1ncc(-c2ccc(-c3ccc4cc(-c5cnc([C@@H]6CCCN6C(=O)[C@@H](c6ccccc6)N(C)C)[nH]5)ccc4c3)cc2)[nH]1)C(C)C [Example 33] | – | – | – | – | EC50 [1, 10]: 0.001 to 0.999 nM; EC50 ([2]; read-out: 3a, Table 2, genotype 3a NS5A chimeric replicon): 0.001 to 0.99 nM; EC50 [3, 10]: 0.001 to 0.999 nM; EC50 [4, 9]: 0.009 nM
17 | COC(=O)N[C@H](C(=O)N1CCC[C@H]1c1ncc(-c2ccc3cc(-c4ccc(-c5cnc([C@@H]6C[C@H](C)CN6C(=O)[C@H](NC(=O)OC)c6ccccc6)[nH]5)cc4)ccc3c2)[nH]1)C(C)C [Example 130] | 0.001 to 0.999 | 0.001 to 0.99 | 0.001 to 0.999 | 0.006 | –
18 | COC(=O)NC(C(=O)N1CCC[C@H]1c1ncc(-c2ccc(-c3ccc4cc(-c5cnc([C@@H]6CCCN6C(=O)[C@@H](NC(=O)OC)C(C)C)[nH]5)ccc4c3)cc2)[nH]1)c1ccc(Cl)cc1 (stereo partly drawn) [Example 107] | 1 to 44 | 1 to 4.99 | 1 to 44 | 0.024 | –
19 | COC(=O)N[C@H](C(=O)N1CCC[C@H]1c1nc2c([nH]1)COc1cc(-c3ccc4cc(-c5c[nH]c([C@@H]6CCCN6C(=O)[C@H](NC(=O)OC)c6ccccc6)n5)ccc4c3)ccc1-2)C(C)C [Example 176] | 0.001 to 0.999 | 0.001 to 0.99 | 0.001 to 0.999 | 0.006 | –
20 | COC(=O)N[C@H](C(=O)N1CCC[C@H]1c1ncc(-c2ccc3cc(-c4ccc(-c5cnc([C@@H]6CCCN6C(=O)[C@H](NC(=O)CC6CCOCC6)c6ccccc6)[nH]5)cc4)ccc3c2)[nH]1)C(C)C [Example 212] | 0.001 to 0.999 | 0.001 to 0.99 | 0.001 to 0.999 | 0.018 | –
21 | COC(=O)N[C@H](C(=O)N1CCC[C@H]1c1ncc(-c2ccc(-c3ccc4cc(-c5cnc([C@@H]6CCCN6C(=O)[C@@H](NC(=O)OC)C(C)C)[nH]5)ccc4c3)cc2)[nH]1)c1ccccc1Cl [Example 103] | 0.001 to 0.999 | 0.001 to 0.99 | 0.001 to 0.999 | 0.007 | –
